For series [1], the system named is KYSE70 cells. The series is described as follows: MTT assay, KYSE70. The following applies: for IC50: Homo sapiens, KYSE-70, MTT, 48 h, KYSE70, n = 5. The series is classed as cell-based, human. The text has this: (§1) The human cancer cells (H1650, H1975, KYSE70, KYSE410 and KYSE450) were purchased from the Type Culture Collection of the Chinese Academy of Sciences (Shanghai, China). The human immortalized normal esophageal epithelial cell line SHEE was donated by Dr. Enmin Li from the Laboratory of Tumor Pathology (Shantou University Medical College, Shantou, Guangdong, China). Drug-resistant cells (H1650TR, H1975OR, KYSE70TR, KYSE410TR and KYSE450TR) were induced by China-US (Henan) Hormel Cancer Institute. The cellswere cultured in RPMI-1640 complete growth medium containing 100 U/mL penicillin-streptomycin and 10% FBS. Based on the above medium formula, 100 nm/L paclitaxel was added in taxol-resistant cells, 100 nm/L gefitinib was added in gefitinib-resistant cells. The cells were incubated at 37 °C in an atmosphere containing 5% of CO2. The compounds were dissolved in DMSO to make a 50 mM stock solution and were diluted to the concentration of working solutions with complete growth medium before administration.
(§2) Cells were seeded in 96-well plates with 2,200–2,500 cells/well in100 μL. One day after seeding, test compounds with the concentration between 0 and 50 μM were added with 0.1% DMSO as control. Five multiple wells for each concentration. After 48 h, MTT was added and incubated in the plate for 1–4 h in the incubator. The absorbance at 490 nm was measured using a microplate reader (Thermo).
(In general: Tetrazolium assays rely on reduction of a dye to a coloured formazan, in cell work by metabolically active cells.)

In series [2] the test system is H1975 cells. The series is described as follows: MTT assay for cell proliferation and cytotoxicity, H1975. The series is classed as cell-based, human. The following applies: Homo sapiens, NCI-H1975, 48 h, MTT, 48 h, H1975, n = 5; read-out: IC50 48 h H1975.
Source text: as §1
(§3) Cells were seeded in 96-well plates with 2,200–2,500 cells/well in100 μL. One day after seeding, test compounds with the concentration between 0 and 50 μM were added with 0.1% DMSO as control. Five multiple wells for each concentration. […] The absorbance at 490 nm was measured using a microplate reader (Thermo).

Series [3] relates to KYSE450 cells. The series is described as follows: MTT assay, KYSE450. The format is cell-based, human. As to conditions: for IC50: Homo sapiens, KYSE-450, MTT, 48 h, KYSE450, n = 5, read-out: IC50 48 h KYSE450; for absorbance 490 nm, single well / mean absorbance 490 nm (row G) / mean absorbance 490 nm minus background (row H): KYSE450.
Source text: as §1, §2

For series [4], the system named is SHEE cells. The experiment in a line: MTT assay, normal esophageal epithelial cell line SHEE. The format is cell-based. The following applies: Homo sapiens, 48 h, n = 5.
Source text: as §1, §2

Series [5] relates to KYSE410 cells. The experiment in a line: MTT assay, KYSE410. The format is cell-based, human. As to conditions: for IC50: Homo sapiens, 48 h.
Source text: as §1, §2

The test system of series [6] is H1650 cells. The series is described as follows: MTT assay for cell proliferation and cytotoxicity, H1650. The following applies: Homo sapiens, NCI-H1650, 48 h, H1650, n = 5. The format is cell-based.
Source text: as §1, §2

The test system of series [7] is KYSE410TR cells. The series is described as follows: MTT assay, taxol-resistant KYSE410TR. The series is classed as cell-based, human. The following applies: Homo sapiens, KYSE 410 TR, MTT, resistance-inducing drug (taxol).
Source text: as §1, §3

The test system of series [8] is KYSE450TR cells. The series is described as follows: MTT assay, taxol-resistant KYSE450TR. The series is classed as cell-based, human. The following applies: Homo sapiens, KYSE 450 TR, MTT, resistance-inducing drug (taxol).
Source text: as §1, §3

Series [9] deals with KYSE70TR cells. The series is described as follows: MTT assay, taxol-resistant KYSE70TR. The format is cell-based, human. As to conditions: Homo sapiens, KYSE 70 TR, MTT, resistance-inducing drug (taxol).
Source text: as §1, §3

Setting [10] is: KYSE-410, MTT, KYSE410, n = 5, read-out: IC50 48 h KYSE410.
[11] abbreviates: concentration 12.5 (unit not given).
Where [12] appears, read: concentration 25 (unit not given).
Where [13] appears, read: concentration 50 (unit not given).
Setting [14] is: concentration 100 (unit not given).

The text below walks through data of article PMC9709406 (Frontiers in Pharmacology, 2022).

Several values for one entry are separate records, joined by “and”; a condition that tells them apart may be missing. Equal entries are not always repeated. Where two headings read alike, the source gives them in different places.

What is called IC50 is the point on the concentration scale where inhibition reaches its midpoint. Usually melting point stands for the temperature of the solid-liquid transition. For the compound `COc1cccc(Cn2cc(-c3cccc(Nc4ncnc5cc6c(cc45)OCCOCCOCCO6)c3)nn2)c1` [compound 3t], the melting point was 131 to 134 °C. Moreover, in series [1], the IC50 is more than 50 µM. In addition, in series [2], the IC50 is 20 ± 1.52 µM. For the same compound, the IC50 in series [3] amounted to 45.6 ± 2.01 µM. Further, the 50% inhibitory concentration (IC50) in [4] worked out at 33.3 ± 1.99 µM. In series [5] (setting [10]), the IC50 is more than 50 µM. For the same compound, it took 21 ± 1.91 µM to reach half-maximal inhibition in [6] (IC50).
In the case of `Brc1cc(Br)cc(Cn2cc(-c3cccc(Nc4ncnc5cc6c(cc45)OCCOCCOCCO6)c3)nn2)c1` [compound 3u], the melting point fell in the range of 151 to 154 °C. Also, the IC50 in series [1] was more than 50 µM. Further, the IC50 in series [2] is more than 50 µM. In series [3], the concentration for half-maximal inhibition (IC50) was more than 50 µM. This compound also came in with an IC50 in [4] of more than 50 µM. Moreover, the IC50 in [5] (setting [10]) was more than 50 µM. The compound also yielded an IC50 in [6] of more than 50 µM.
Take `Fc1ccc(CCn2cc(-c3cccc(Nc4ncnc5cc6c(cc45)OCCOCCOCCO6)c3)nn2)cc1` [compound 3v]: the melting point was 110 to 113 °C. Inhibition in [1] was half-maximal at 6.93 ± 0.37 µM (IC50). Besides, in series [1] (KYSE70, concentration 12.5), the “blank-corrected absorbance 490 nm relative to control (fraction)” value stood at 0.0977 and the “inhibition (1 minus fraction of control)” value was 0.9023. In series [1] (KYSE70, concentration 25), the “blank-corrected absorbance 490 nm relative to control (fraction)” value is recorded as 0.03951 and the “inhibition (1 minus fraction of control)” value was 0.9605. Moreover, in series [1] (KYSE70, concentration 50), the “blank-corrected absorbance 490 nm relative to control (fraction)” value is reported as 0.1249 and the “inhibition (1 minus fraction of control)” value is on record as 0.8751. In [1] (KYSE70, concentration 100), the “blank-corrected absorbance 490 nm relative to control (fraction)” value was 0.0961 and the “inhibition (1 minus fraction of control)” value is 0.9039. The concentration for half-maximal inhibition (IC50) in series [2] was 11.1 ± 0.95 µM. Besides, in series [3], the IC50 was 11 ± 0.97 µM. Further, in series [3] (setting [11]), the “absorbance 490 nm, single well” value is 0.3527 and 0.3885 and 0.4267 and 0.4169; the “mean absorbance 490 nm (row G)” value is listed as 0.3962; the “mean absorbance 490 nm minus background (row H)” value is listed as 0.3414. In [3] (setting [12]), the “absorbance 490 nm, single well” value was 0.1525 and 0.1448 and 0.156 and 0.143 and 0.153; the “mean absorbance 490 nm (row G)” value worked out at 0.1499; the “mean absorbance 490 nm minus background (row H)” value is on record as 0.09506. Besides, in [3] (setting [13]), the “absorbance 490 nm, single well” value is 0.0873 and 0.0943 and 0.1023 and 0.0955; the “mean absorbance 490 nm (row G)” value is given as 0.09485; the “mean absorbance 490 nm minus background (row H)” value worked out at 0.04005. In [3] (setting [14]), the “absorbance 490 nm, single well” value is 0.0657 and 0.0611 and 0.0638 and 0.0596 and 0.0609; the “mean absorbance 490 nm (row G)” value is recorded as 0.06222; the “mean absorbance 490 nm minus background (row H)” value is 0.00742. In addition, in series [4], inhibition was half-maximal at 8.26 ± 0.71 µM (IC50). In series [5] (setting [10]), the half-maximal inhibitory concentration (IC50) stood at 21.6 ± 1.35 µM. Also, in series [5] (KYSE410, concentration 12.5), the “blank-corrected absorbance 490 nm relative to control (fraction)” value worked out at 1.2383 and the “inhibition (1 minus fraction of control)” value is -0.2383. In addition, in series [5] (KYSE410, concentration 25), the “blank-corrected absorbance 490 nm relative to control (fraction)” value is 0.4202 and the “inhibition (1 minus fraction of control)” value was 0.5798. Also, in series [5] (KYSE410, concentration 50), the “blank-corrected absorbance 490 nm relative to control (fraction)” value came to 0.1986 and the “inhibition (1 minus fraction of control)” value was found to be 0.8014. Also, in [5] (KYSE410, concentration 100), the “blank-corrected absorbance 490 nm relative to control (fraction)” value is -0.03723 and the “inhibition (1 minus fraction of control)” value is 1.037. In series [6], this compound returned an IC50 of 11.6 ± 0.96 µM.
As for `CC(=O)O[C@H]1C(=O)[C@@]2(C)[C@H]([C@H](OC(=O)c3ccccc3)[C@]3(O)C[C@H](OC(=O)[C@H](O)[C@@H](NC(=O)c4ccccc4)c4ccccc4)C(C)=C1C3(C)C)[C@]1(OC(C)=O)CO[C@@H]1C[C@@H]2O` [taxol, reference compound], the IC50 in [7] (24 h, read-out: 24 h IC50) was 6.4 ± 0.43 µM; in series [7] (48 h, read-out: 48 h IC50), 1.71 ± 0.05 µM; in [8] (24 h, read-out: 24 h IC50), 0.266 ± 0.0661 µM; in [8] (48 h, read-out: 48 h IC50), 0.12 ± 0.0301 µM; in [9] (24 h, read-out: 24 h IC50), 4.92 ± 0.274 µM; in [9] (48 h, read-out: 48 h IC50), 1.12 ± 0.0352 µM. Besides, the concentration for half-maximal inhibition (IC50) in series [5] (KYSE 410, MTT, resistance-inducing drug (taxol), read-out: 48 h IC50) is 0.0524 ± 0.00345 µM.
